Test results published in US20250179049A1, “SALTS OF HETEROCYCLIC INHIBITORS OF MONOCARBOXYLATE TRANSPORTER 4 FOR THE TREATMENT OF DISEASE” (Vettore, LLC, priority 2022, published 2025).
Counter-ions that a name gives are not always drawn. Like-named read-outs stand apart in the source and are kept apart here.

Assays:
[1] = Rat pharmacokinetics, oral gavage; type: in vivo, Sprague-Dawley rats; set-up: AUClast/D: unit not given here; conditions: for MRT inf: read-out: MRTInf—obs; for AUC(0-t) / Cmax / Tmax / AUC0-24 salt/ AUC0-24 free/ / AUC0-24: rat
Method: Groups, Dosing, and Collection. […] Three rats per group were perorally administered 20, 60, or 200 mg Compound 1 free acid or 25, 75, or 250 mg in 0.5% methylcellulose in Saline for a final concentration of 2, 6, or 20 mg/mL Compound 1 free acid or 2.5, 7.5, or […]. Plasma was collected at 5 min, 15 min, 30 min, 1 hour, 2 hour, 4 hour, 6 hour, 8 hour, and 24 hour post dose via jugular vein.
Stock and Dose Prep. Stock solutions were prepared by dissolving 2.47 mg of Compound 1 (free acid) in 2.470 mL DMSO with vortexing to obtain 1 mg/mL solution of Compound 1 (free acid), or 2.09 mg of Compound 1 (Tris salt) in […] DMSO with vortexing to obtain 1 mg/mL solution of Compound 1 (Tris salt). Dosing solutions were prepared by vortexing/sonicating the following solids in solvent:
LC MS-MS Analysis. Liquid Chromatography with tandem mass spectrometry was used to determine plasma concentrations of Compound 1 Free Acid and Compound 1 Tris Salt in plasma samples collected at prescribed time points.
Appropriate serial concentrations of working solutions were achieved by diluting stock solution of analyte with 50% acetonitrile in water solution. Five μL of working solutions (10, 20, 50, 100, 500, 1000, 5000, 8000, 10000 ng/mL) were added to 50 μL of the blank male SD Rat plasma to achieve calibration standards of 1˜1000 ng/ml (1, 2, 5, 10, 50, 100, 500, 800, 1000 ng/mL) in a total volume of 55 μL. Five quality control (QC) samples at 2 ng/mL, 5 ng/mL, 10 ng/mL, 50 ng/mL and 800 ng/mL for plasma were prepared independently of those used for the calibration curves. These QC samples were prepared on the day of analysis in the same way as calibration standards. 55 μL standards, 55 μL QC samples and 55 μL unknown samples (50 μL plasma/blood with 5 μL blank solution) were added to 200 μL of methanol containing internal standard (dexamethasone) mixture for precipitating protein respectively, and vortexed for 30 seconds. After centrifugation at 4° C. and 4000 rpm for 15 minutes. The supernatant was diluted with water with a ratio of 1:2. 2 μL of the supernatant was injected into the LC/MS/MS system for quantitative analysis.
Instrumentation included HALO 90A C18 2.7 μm 2.1×50 mm HPLC column, a Prominence degasser DGU-20A5R(C), liquid chromatograph Shimadzu LC-30AD with communications bus module CBM-20A and Auto SIL-20AC HT; and an AB Sciex Triple Quad 5500 LC/MS/MS instrument.

[2] = 28-day repeat-dose toxicity study in rats; type: in vivo; conditions: female, Sprague Dawley, rat, in vivo, 75 mg/kg
Method: Compound 1 was administered to Sprague Dawley rats by oral gavage at doses of 25, 75, and 250 mg/kg/day (females) and 40, 120, and 400 mg/kg/day (males) for 28 days. Compound 1-related mortality occurred in 8 of the 15 toxicity males administered 400 mg/kg/day beginning on Day 8 through 24. […] Target tissues included bone marrow, spleen, thymus, liver, lymph nodes, epididymides, seminal vesicles, prostate, testes, uterus, and ovaries.
Compound 1 tris salt was evaluated for safety in 7- and 28-day studies in rats and dogs. […] The NOAELs for this rat study were 120 mg/kg/day for males and 75 mg/kg/day for females. […] The NOAEL determined in the 28-day dog GLP study was 150 mg/kg/day. These correspond to human equivalent doses (HEDs) of: • Rat: 75 mg/kg×0.16=12 mg/kg • Dog: 150 mg/kg×0.54=81 mg/kg

[3] = Sprague-Dawley, plasma, rat PO 25 mg/kg, female, mean
[4] = Sprague-Dawley, plasma, rat PO 25 mg/kg, male, mean
[5] = Sprague-Dawley, plasma, rat PO 75 mg/kg, female, mean
[6] = Sprague-Dawley, plasma, rat PO 75 mg/kg, male, mean
[7] = Sprague-Dawley, plasma, rat PO 250 mg/kg, female, mean
[8] = Sprague-Dawley, plasma, rat PO 250 mg/kg, male, mean
[9] = Female, PO/20 mg/kg, Mean ± SD, 20 mg/kg
[10] = Female, PO/60 mg/kg, Mean ± SD, 60 mg/kg
[11] = Female, PO/200 mg/kg, Mean ± SD, 200 mg/kg

## CC(C)(OCc1cc(-c2cccc(OC3CCC3)c2)n(-c2ccccc2N2CCC2)n1)C(=O)O [Compound 1 tris salt, tris salt of 2-((1-(2-(azetidin-1-yl)phenyl)-5-(3-cyclobutoxyphenyl)-1H-pyrazol-3-yl)methoxy)-2-methylpropanoic acid]
[1]; [3]
  AUC(0-inf): 1040 µg·h/mL
  half-life: 6.53 h
  MRT inf: 9.9 h
[1]; [4]
  AUC(0-inf): 357 µg·h/mL
  half-life: 3.24 h
  MRT inf: 6.1 h
[1]; [5]
  AUC(0-inf): 3270 µg·h/mL
  half-life: 9.6 h
  MRT inf: 14.7 h
[1]; [6]
  AUC(0-inf): 910 µg·h/mL
  half-life: 2.91 h
  MRT inf: 6.03 h
[1]; [7]
  AUC(0-inf): 16300 µg·h/mL
  half-life: 40.5 h
  MRT inf: 62 h
[1]; [8]
  AUC(0-inf): 2890 µg·h/mL
  half-life: 12.2 h
  MRT inf: 18.6 h
[1]; female, Sprague-Dawley, plasma, po, 25 mg/kg, rat PO 25 mg/kg, female, mean, read-out: AUClast
  AUC(0-t): 947 µg·h/mL
[1]; female, Sprague-Dawley, plasma, po, 25 mg/kg, rat PO 25 mg/kg, female, mean, read-out: Cmax
  Cmax: 68.6 µg/mL
[1]; female, Sprague-Dawley, plasma, po, 25 mg/kg, rat PO 25 mg/kg, female, mean, read-out: Tmax
  Tmax: 6 h
[1]; female, Sprague-Dawley, plasma, po, 75 mg/kg, rat PO 75 mg/kg, female, mean, read-out: AUClast
  AUC(0-t): 2540 µg·h/mL
[1]; female, Sprague-Dawley, plasma, po, 75 mg/kg, rat PO 75 mg/kg, female, mean, read-out: Cmax
  Cmax: 171 µg/mL
[1]; female, Sprague-Dawley, plasma, po, 75 mg/kg, rat PO 75 mg/kg, female, mean, read-out: Tmax
  Tmax: 5.33 h
[1]; female, Sprague-Dawley, plasma, po, 250 mg/kg, rat PO 250 mg/kg, female, mean, read-out: AUClast
  AUC(0-t): 4470 µg·h/mL
[1]; female, Sprague-Dawley, plasma, po, 250 mg/kg, rat PO 250 mg/kg, female, mean, read-out: Cmax
  Cmax: 223 µg/mL
[1]; female, Sprague-Dawley, plasma, po, 250 mg/kg, rat PO 250 mg/kg, female, mean, read-out: Tmax
  Tmax: 6.67 h
[1]; male and female rats
  Total drug exposure across time (AUClast and AUCInf) compared with free acid: higher
[1]; male, Sprague-Dawley, plasma, po, 25 mg/kg, rat PO 25 mg/kg, male, mean, read-out: AUClast
  AUC(0-t): 352 µg·h/mL
[1]; male, Sprague-Dawley, plasma, po, 25 mg/kg, rat PO 25 mg/kg, male, mean, read-out: Cmax
  Cmax: 44.2 µg/mL
[1]; male, Sprague-Dawley, plasma, po, 25 mg/kg, rat PO 25 mg/kg, male, mean, read-out: Tmax
  Tmax: 2.86 h
[1]; male, Sprague-Dawley, plasma, po, 25 mg/kg, Male, PO/25 mg/kg, Mean ± SD, read-out: AUC0-24
  AUC(0-t): 352 µg·h/mL
[1]; male, Sprague-Dawley, plasma, po, 25 mg/kg, Male, PO/25 mg/kg, Mean ± SD, read-out: Cmax
  Cmax: 44.2 µg/mL
[1]; male, Sprague-Dawley, plasma, po, 25 mg/kg, Male, PO/25 mg/kg, Mean ± SD, read-out: Tmax
  Tmax: 2.9 ± 4.5 h
[1]; male, Sprague-Dawley, plasma, po, 75 mg/kg, rat PO 75 mg/kg, male, mean, read-out: AUClast
  AUC(0-t): 906 µg·h/mL
[1]; male, Sprague-Dawley, plasma, po, 75 mg/kg, rat PO 75 mg/kg, male, mean, read-out: Cmax
  Cmax: 92.3 µg/mL
[1]; male, Sprague-Dawley, plasma, po, 75 mg/kg, rat PO 75 mg/kg, male, mean, read-out: Tmax
  Tmax: 4 h
[1]; male, Sprague-Dawley, plasma, po, 75 mg/kg, Male, PO/75 mg/kg, Mean ± SD, read-out: AUC0-24
  AUC(0-t): 906 µg·h/mL
[1]; male, Sprague-Dawley, plasma, po, 75 mg/kg, Male, PO/75 mg/kg, Mean ± SD, read-out: Cmax
  Cmax: 92.3 µg/mL
[1]; male, Sprague-Dawley, plasma, po, 75 mg/kg, Male, PO/75 mg/kg, Mean ± SD, read-out: Tmax
  Tmax: 4 ± 2 h
[1]; male, Sprague-Dawley, plasma, po, 250 mg/kg, rat PO 250 mg/kg, male, mean, read-out: AUClast
  AUC(0-t): 2090 µg·h/mL
[1]; male, Sprague-Dawley, plasma, po, 250 mg/kg, rat PO 250 mg/kg, male, mean, read-out: Cmax
  Cmax: 144 µg/mL
[1]; male, Sprague-Dawley, plasma, po, 250 mg/kg, rat PO 250 mg/kg, male, mean, read-out: Tmax
  Tmax: 5.33 h
[1]; male, Sprague-Dawley, plasma, po, 250 mg/kg, Male, PO/250 mg/kg, Mean ± SD, read-out: AUC0-24
  AUC(0-t): 2090 µg·h/mL
[1]; male, Sprague-Dawley, plasma, po, 250 mg/kg, Male, PO/250 mg/kg, Mean ± SD, read-out: Cmax
  Cmax: 144 µg/mL
[1]; male, Sprague-Dawley, plasma, po, 250 mg/kg, Male, PO/250 mg/kg, Mean ± SD, read-out: Tmax
  Tmax: 5.3 ± 1.1 h
[1]; rat PO 25 mg/kg, female, mean
  AUClast/D: 37897
  AUC—% Extrap—obs: 9%
[1]; rat PO 25 mg/kg, male, mean
  AUClast/D: 14077
  AUC—% Extrap—obs: 1.28%
[1]; rat PO 75 mg/kg, female, mean
  AUClast/D: 33882
  AUC—% Extrap—obs: 18.5%
[1]; rat PO 75 mg/kg, male, mean
  AUClast/D: 12078
  AUC—% Extrap—obs: 0.473%
[1]; rat PO 250 mg/kg, female, mean
  AUClast/D: 17869
  AUC—% Extrap—obs: 59.9%
[1]; rat PO 250 mg/kg, male, mean
  AUClast/D: 8340
  AUC—% Extrap—obs: 26.5%
[1]; Female, PO/20 mg/kg
  AUC0-24 salt/ AUC0-24 free/: 1.07
[1]; [9]
  AUC0-24: 947,000 ± 135,000 ng h/mL
  Cmax: 68,600 ± 6400 ng/mL
[1]; Female, PO/60 mg/kg
  AUC0-24 salt/ AUC0-24 free/: 1.78
[1]; [10]
  AUC0-24: 2,540,000 ± 503,000 ng h/mL
  Cmax: 171,000 ± 11,600 ng/mL
[1]; Female, PO/200 mg/kg
  AUC0-24 salt/ AUC0-24 free/: 1.57
[1]; [11]
  AUC0-24: 4,470,000 ± 705,000 ng h/mL
  Cmax: 223,000 ± 29,900 ng/mL
  Tmax: 6.7 ± 1.1 h
[1]; Male, PO/25 mg/kg
  AUC0-24 salt/ AUC0-24 free/: 2.11
[1]; Male, PO/75 mg/kg
  AUC0-24 salt/ AUC0-24 free/: 2.03
[1]; Male, PO/250 mg/kg
  AUC0-24 salt/ AUC0-24 free/: 1.89
[2]
  Human equivalent dose of NOAEL at 28 days: 12 mg/kg
